Measured values from patent US20240043439A1, “COMPOUNDS AS C5AR INHIBITORS” (Kira Pharmaceuticals (Suzhou) Ltd., priority 2020, published 2024).
pIC50: −log10 of the molar value.

What was measured:
C5aR [1] = molecular target: T1, C5aR (Homo sapiens (Human), UniProt P21730); assay: Inhibition of C5a-C5aR binding determined by cell migration assay (U937/C5aR cells); type: cell-based; conditions: U937/C5aR cell migration towards human C5a, 180 min
Experimental: Migration assay was performed by using polycarbonate membrane with 3.0 µm pore (Corning). U937/C5aR cells were collected and washed twice by PBS; cells were suspended in Hank's balanced salt solution (HBSS)+1% FBS buffer at the density of 6×10^6 cells/ml. Cells were premixed with compound and added to insert well, ligand human C5a and compound were added to bottom well in order, gently mix, incubate for 30 min at 37° C., […]. Put insert plate into bottom well, migrate for 180 min at 37° C., […]. Gently remove the insert well, add 50 μl CellTiter-Glo (Promega), gently shaking for 5 min at room temperature, transfer 150 μl mixture to black plate and read luminescence intensity by
microplate reader (BioTek).

C5aR [2] = molecular target: T1, C5aR; assay: Calcium mobilization (U937/C5aR or HEK293/C5aR cells, FLIPR); type: cell-based; conditions: agonist human C5a at EC80, FLIPR
Procedure, shortened: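 U937 or HEK293 cells expressing human C5aR, plated overnight, then preincubated 60 min with compound. After Fluo-4 Direct dye loading (50 min at 37 °C, 10 min at room temperature), intracellular calcium rise on FLIPR was triggered by human C5a agonist at EC80.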

[3] = molecular target: human C5a receptor (C5aR) (Homo sapiens (Human), UniProt P21730); assay: Inhibition of C5a-C5aR binding (biotinylated human C5a, U937/C5aR cells, FACS)
Sequence of human C5a receptor (C5aR) (P21730 whole entry): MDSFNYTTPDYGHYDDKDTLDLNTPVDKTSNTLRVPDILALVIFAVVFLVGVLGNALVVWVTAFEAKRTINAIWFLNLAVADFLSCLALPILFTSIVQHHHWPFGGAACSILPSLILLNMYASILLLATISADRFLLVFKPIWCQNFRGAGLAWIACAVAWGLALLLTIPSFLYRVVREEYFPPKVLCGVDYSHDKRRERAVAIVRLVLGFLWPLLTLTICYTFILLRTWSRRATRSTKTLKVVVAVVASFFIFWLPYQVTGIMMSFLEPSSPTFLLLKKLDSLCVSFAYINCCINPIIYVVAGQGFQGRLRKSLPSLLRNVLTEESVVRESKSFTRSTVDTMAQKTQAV
Procedure, shortened: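 U937 cells stably expressing human C5aR, 3×10^6 cells/ml in PBS+0.1% BSA, were co-incubated with compound and biotinylated human C5a (30 nM, working solution) on ice for 120 min. Bound ligand was stained with FITC-streptavidin for 30 min on ice and read by flow cytometry.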

T1 sequence (P21730 whole entry): as above

| Structure (SMILES) | pIC50 (C5aR [1]) | pIC50 (C5aR [2]) | pIC50 [3] |
| --- | --- | --- | --- |
| Cc1cccc(F)c1C(=O)N1C2CCC[C@@H]2C[C@H](C(=O)Nc2cccnc2)[C@@H]1c1ccc(NC2CCCC2)cc1 (relative stereo) [Compound 57, cis-2-(4-(cyclopentylamino)phenyl)-1-(2-fluoro-6-methylbenzoyl)-N-(pyridin-3-yl)octahydro-1H-cyclopenta[b]pyridine-3-carboxamide] | 6.30 to 7.30 | 5.00 to 5.70 | 6.30 to 7.30 |
| Cc1cccc(F)c1C(=O)N1C(c2ccc(NC3CCCC3)cc2)C(C(=O)Nc2ccc3c(c2)CCN(C)C3)C[C@@H]2CCC[C@@H]21 (relative stereo) [Compound 77, cis-2-(4-(cyclopentylamino)phenyl)-1-(2-fluoro-6-methylbenzoyl)-N-(2-methyl-1,2,3,4-tetrahydroisoquinolin-6-yl)octahydro-1H-cyclopenta[b]pyridine-3-carboxamide] | < 5.30 | 5.00 to 5.70 | 5.30 to 5.70 |
| Cc1cccc(F)c1C(=O)N1C(c2ccc(NC3CCCC3)cc2)C(C(=O)Nc2cnc3cnn(C)c3c2)C[C@@H]2CCC[C@@H]21 (relative stereo) [Compound 78, cis-2-(4-(cyclopentylamino)phenyl)-1-(2-fluoro-6-methylbenzoyl)-N-(1-methyl-1H-pyrazolo[4,3-b]pyridin-6-yl)octahydro-1H-cyclopenta[b]pyridine-3-carboxamide] | 6.30 to 7.30 | 5.70 to 6.30 | 6.30 to 7.30 |
| Cc1ccc(NC(=O)C2C[C@@H]3CCC[C@@H]3N(C(=O)c3c(C)cccc3F)C2c2ccc(NC3CCOCC3)cc2)cc1C(F)(F)F (relative stereo) [Compound 88, cis-1-(2-fluoro-6-methylbenzoyl)-N-(4-methyl-3-(trifluoromethyl)phenyl)-2-(4-((tetrahydro-2H-pyran-4-yl)amino)phenyl)octahydro-1H-cyclopenta[b]pyridine-3-carboxamide] | > 7.30 | > 7.30 | 6.30 to 7.30 |
| Cc1cccc(F)c1C(=O)N1C2CCC[C@@H]2C[C@H](C(=O)Nc2ccc3cccnc3c2)[C@@H]1c1ccc(NC2CCOCC2)cc1 (relative stereo) [Compound 90, cis-1-(2-fluoro-6-methylbenzoyl)-N-(quinolin-7-yl)-2-(4-((tetrahydro-2H-pyran-4-yl)amino)phenyl)octahydro-1H-cyclopenta[b]pyridine-3-carboxamide] | 6.30 to 7.30 | 6.30 to 7.30 | 6.30 to 7.30 |
| Cc1ccc(NC(=O)C2C[C@@H]3CCC[C@@H]3N(C(=O)c3cocn3)C2c2ccc(NC3CCCC3)cc2)cc1C(F)(F)F (relative stereo) [Compound 110, cis-2-(4-(cyclopentylamino)phenyl)-N-(4-methyl-3-(trifluoromethyl)phenyl)-1-(oxazole-4-carbonyl)octahydro-1H-cyclopenta[b]pyridine-3-carboxamide] | 6.30 to 7.30 | < 5.00 | 6.30 to 7.30 |
| Cc1ccc(NC(=O)C2C[C@H]3CCC[C@H]3N(C(=O)C3CCOCC3)[C@H]2c2ccc(NC3CCCC3)cc2)cc1C(F)(F)F (relative stereo) [Compound 111, cis-2-(4-(cyclopentylamino)phenyl)-N-(4-methyl-3-(trifluoromethyl)phenyl)-1-(tetrahydro-2H-pyran-4-carbonyl)octahydro-1H-cyclopenta[b]pyridine-3-carboxamide] | 6.30 to 7.30 | 5.00 to 5.70 | 6.30 to 7.30 |
| Cc1ccc(NC(=O)C2C[C@H]3CCC[C@H]3N(C(=O)c3cscn3)C2c2ccc(NC3CCCC3)cc2)cc1C(F)(F)F (relative stereo) [Compound 114, cis-2-(4-(cyclopentylamino)phenyl)-N-(4-methyl-3-(trifluoromethyl)phenyl)-1-(thiazole-4-carbonyl)octahydro-1H-cyclopenta[b]pyridine-3-carboxamide] | 6.30 to 7.30 | < 5.00 | > 7.30 |
| Cc1ccc(NC(=O)C2C[C@H]3CCC[C@H]3N(C(=O)c3cncnc3)C2c2ccc(NC3CCCC3)cc2)cc1C(F)(F)F (relative stereo) [Compound 115, cis-2-(4-(cyclopentylamino)phenyl)-N-(4-methyl-3-(trifluoromethyl)phenyl)-1-(pyrimidine-5-carbonyl)octahydro-1H-cyclopenta[b]pyridine-3-carboxamide] | 6.30 to 7.30 | < 5.00 | 6.30 to 7.30 |
| Cc1ccc(NC(=O)C2C[C@@H]3COC[C@@H]3N(C(=O)c3c(C)cccc3F)C2c2ccc(NC3CCCC3)cc2)cc1C(F)(F)F (relative stereo) [Compound 118, cis-2-(4-(cyclopentylamino)phenyl)-1-(2-fluoro-6-methylbenzoyl)-N-(4-methyl-3-(trifluoromethyl)phenyl)octahydrofuro[3,4-b]pyridine-3-carboxamide] | > 7.30 | 6.30 to 7.30 | > 7.30 |
| Cc1cccc(F)c1C(=O)N1C(c2ccc(NC3CCCC3)cc2)C(C(=O)Nc2ccc3c(cnn3C)c2)C[C@@H]2COC[C@@H]21 (relative stereo) [Compound 121, cis-2-(4-(cyclopentylamino)phenyl)-1-(2-fluoro-6-methylbenzoyl)-N-(1-methyl-1H-indazol-5-yl)octahydrofuro[3,4-b]pyridine-3-carboxamide] | 6.30 to 7.30 | 6.30 to 7.30 | 6.30 to 7.30 |
| Cc1ccc(NC(=O)C2C[C@@H]3COC[C@@H]3N(C(=O)c3c(C)cccc3F)C2c2ccc(CN3CCOCC3(C)C)cc2)cc1C(F)(F)F (relative stereo) [Compound 141, cis-2-(4-((3,3-dimethylmorpholino)methyl)phenyl)-1-(2-fluoro-6-methylbenzoyl)-N-(4-methyl-3-(trifluoromethyl)phenyl)octahydrofuro[3,4-b]pyridine-3-carboxamide] | 5.70 to 6.30 | 5.00 to 5.70 | 6.30 to 7.30 |
| Cc1cccc(F)c1C(=O)N1C(c2ccc(NC3CCCC3)cc2)C(C(=O)Nc2ccc3c(cnn3C)c2)C[C@@H]2CCC[C@@H]21 (relative stereo) [Compound 147, cis-2-(4-(cyclopentylamino)phenyl)-1-(2-fluoro-6-methylbenzoyl)-N-(1-methyl-1H-indazol-5-yl)octahydro-1H-cyclopenta[b]pyridine-3-carboxamide] | 6.30 to 7.30 | 6.30 to 7.30 | > 7.30 |
| Cc1cccc(F)c1C(=O)N1C(c2ccc(NC3CCOCC3)cc2)C(C(=O)Nc2ccc3c(cnn3C)c2)C[C@@H]2CCC[C@@H]21 (relative stereo) [Compound 158, cis-1-(2-fluoro-6-methylbenzoyl)-N-(1-methyl-1H-indazol-5-yl)-2-(4-((tetrahydro-2H-pyran-4-yl)amino)phenyl)octahydro-1H-cyclopenta[b]pyridine-3-carboxamide] | > 7.30 | 6.30 to 7.30 | > 7.30 |
| Cc1ccc(NC(=O)[C@H]2OCCN(C(=O)c3c(C)cccc3F)[C@H]2c2ccc(NC3CCCC3)cc2)cc1C(F)(F)F (relative stereo) [Compound 187, cis-3-(4-(cyclopentylamino)phenyl)-4-(2-fluoro-6-methylbenzoyl)-N-(4-methyl-3-(trifluoromethyl)phenyl)morpholine-2-carboxamide] | 6.30 to 7.30 | 5.00 to 5.70 | 6.30 to 7.30 |
| Cc1cccc(F)c1C(=O)N1C(c2ccc(NC3CCCC3)cc2)C(C(=O)Nc2cnc3cnn(C)c3c2)C[C@@H]2COC[C@@H]21 (relative stereo) [Compound 189, cis-2-(4-(cyclopentylamino)phenyl)-1-(2-fluoro-6-methylbenzoyl)-N-(1-methyl-1H-pyrazolo[4,3-b]pyridin-6-yl)octahydrofuro[3,4-b]pyridine-3-carboxamide] | 6.30 to 7.30 | 5.00 to 5.70 | 6.30 to 7.30 |
| Cc1ccc(NC(=O)[C@H]2CCCN(c3ncnc4ccccc34)[C@H]2c2ccc(NC3CCCC3)cc2)cc1C(F)(F)F [Compound 5, (2R,3S)-2-(4-(cyclopentylamino)phenyl)-N-(4-methyl-3-(trifluoromethyl)phenyl)-1-(quinazolin-4-yl)piperidine-3-carboxamide] | 6.30 to 7.30 | 5.00 to 5.70 | 6.30 to 7.30 |
| Cc1ccc(NC(=O)[C@H]2CCC3CCc4ccccc4C(=O)N3[C@H]2c2ccc(NC3CCCC3)cc2)cc1C(F)(F)F (stereo partly drawn) [Compound 44, (3S,4R)-4-(4-(cyclopentylamino)phenyl)-N-(4-methyl-3-(trifluoromethyl)phenyl)-6-oxo-1,2,3,4,6,11,12,12a-octahydrobenzo[e]pyrido[1,2-a]azepine-3-carboxamide] | > 7.30 | 5.70 to 6.30 | 6.30 to 7.30 |
| Cc1cccc(F)c1C(=O)N1[C@@H]2CCC[C@@H]2C[C@H](C(=O)Nc2ccc(N(C)C)cc2)[C@@H]1c1ccc(NC2CCCC2)cc1 [Compound 51, (2R,3S,4aR,7aR)-2-(4-(cyclopentylamino)phenyl)-N-(4-(dimethylamino)phenyl)-1-(2-fluoro-6-methylbenzoyl)octahydro-1H-cyclopenta[b]pyridine-3-carboxamide] | > 7.30 | 5.70 to 6.30 | > 7.30 |
